Data as given in patent US20250277012A1 (Protagonist Therapeutics, Inc., priority 2021, published 2025).
Positions of bridges follow the written chain, without caps; N, C: chain ends. Non-standard residues stand in square brackets, D forms with d. Residues, ends and D or L forms follow the SMILES beside them. Groups on a side chain read outwards from the residue. ξ: configuration not given here. *: point of attachment. X13 = COC(=O)CCCCCCCCCCCCCCCCC(=O)NCC[N+](C)(C)CC(=O)*; X1 = C[N+](C)(CCNC(=O)CCCCCCCCCCCCCCCCC(=O)O)CC(=O)*; X5 = CCCCCCCCCCCCCCCC(=O)NCC[N+](C)(C)CC(=O)*; Dip = N[C@H](C(=O)O)C(c1ccccc1)c1ccccc1; Pro(3S-OH) = O=C(O)[C@H]1NCC[C@@H]1O; ξDip = NC(C(=O)O)C(c1ccccc1)c1ccccc1; Pro(3R-OH) = O=C(O)[C@H]1NCC[C@H]1O; Palmitoyl = CCCCCCCCCCCCCCCC(=O)*; NMeT = CN[C@H](C(=O)O)[C@@H](C)O; NMeK = CN[C@@H](CCCCN)C(=O)O; Tle = CC(C)(C)[C@H](N)C(=O)O; αMeP = C[C@@]1(C(=O)O)CCCN1; Isovaleryl = CC(C)CC(=O)*; hSer = N[C@@H](CCO)C(=O)O; AEEA = NCCOCCOCC(=O)O; Ahx = NCCCCCC(=O)O

Target: T1, ferroportin (Homo sapiens, UniProt Q9NP59)
T1 sequence (Q9NP59 1-571): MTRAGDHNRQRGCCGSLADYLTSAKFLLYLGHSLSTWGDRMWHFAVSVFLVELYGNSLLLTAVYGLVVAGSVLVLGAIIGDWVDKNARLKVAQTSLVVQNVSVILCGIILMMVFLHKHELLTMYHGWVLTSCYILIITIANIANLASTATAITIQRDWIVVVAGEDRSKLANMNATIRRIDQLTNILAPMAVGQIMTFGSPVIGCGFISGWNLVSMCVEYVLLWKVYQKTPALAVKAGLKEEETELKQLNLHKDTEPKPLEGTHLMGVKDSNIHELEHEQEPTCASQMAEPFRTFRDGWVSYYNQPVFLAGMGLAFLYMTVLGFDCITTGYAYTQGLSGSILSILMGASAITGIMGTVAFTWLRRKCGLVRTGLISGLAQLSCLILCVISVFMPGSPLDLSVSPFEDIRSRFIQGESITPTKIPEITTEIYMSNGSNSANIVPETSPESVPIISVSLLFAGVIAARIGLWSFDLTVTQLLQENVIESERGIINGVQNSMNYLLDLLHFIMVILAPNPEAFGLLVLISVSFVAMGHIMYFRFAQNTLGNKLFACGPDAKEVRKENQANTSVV
Assay: T47D cell-based ferroportin internalization assay in presence of mouse serum albumin (MSA)
Parameters: a human breast carcinoma adherent cell line which endogenously expresses ferroportin; host or cells: T47D
Settings: Table 6E
Method: The potency of the peptides in causing ferroportin internalization was evaluated in a T47D cell-based assay. […] In this internalization assay, the potency of the test peptides was evaluated in presence of serum albumin which is the main protein component in the blood. T47D cells were maintained in RPMI media (containing required amount of fetal bovine serum) and regularly sub-cultured. In preparation for the assay, the cells were seeded in 96-well plates at a density of 80-100 k cells per well in 100 ul volume and allowed to rest overnight. […] Sigma, A3139). The test peptide dilution series were allowed to incubate at room temperature for 30 min. Then the media was aspirated from the 96-well cell plate and test peptide dilution series were added. […] The AF647-conjugated detection peptide was previously verified to bind to ferroportin and cause its internalization. The cells were washed again after a 2 hr incubation in preparation for flow cytometry analysis. The Median Fluorescence Intensity (MFI) of the AF647-positive population was measured (after removing dead cells and non-singlets from the analysis). The MFI values were used to generate a dose-response curve and obtain IC50 potencies for the test peptides.

[1] = T47D internalization assay with MSA

Row | IC50 [1] [nM] | IC50 (T47D internalization assay in presence of mouse serum albumin (MSA)) [nM] | SMILES
1 | 10 to 100 | – | COC(=O)CC[C@H](NC(=O)CC(C)C)C(=O)N[C@H](C(=O)N[C@@H](Cc1c[nH]cn1)C(=O)N[C@H](C(=O)N1CCC[C@H]1C(=O)N[C@H]1CSSC[C@@H](C(=O)N[C@@H](CCCCNC(=O)CCCCCNC(=O)C[N+](C)(C)CCNC(=O)CCCCCCCCCCCCCCCCC(=O)O)C(=O)N[C@H](C(=O)N[C@H](CCCCN)C(N)=O)C(c2ccccc2)c2ccccc2)NC1=O)C(c1ccccc1)c1ccccc1)[C@@H](C)O [compound 211] (Isovaleryl-E(OMe)TH[Dip]PCCK([Ahx-X1])[Dip][dK]-NH2; disulfide 6-7)
2 | 10 to 100 | – | CC(C)CC(=O)N[C@@H](CCC(=O)O)C(=O)N1CC[C@H](O)[C@H]1C(=O)N[C@@H](Cc1c[nH]cn1)C(=O)N[C@H](C(=O)N1CCC[C@H]1C(=O)N[C@H]1CSSC[C@@H](C(=O)N(C)[C@@H](CCCCNC(=O)CCCCCNC(=O)C[N+](C)(C)CCNC(=O)CCCCCCCCCCCCCCCCC(=O)O)C(=O)N[C@H](C(=O)N[C@H](CCCCN)C(N)=O)C(c2ccccc2)c2ccccc2)NC1=O)C(c1ccccc1)c1ccccc1 [compound 192] (Isovaleryl-E[Pro(3S-OH)]H[Dip]PCC[NMeK]([Ahx-X1])[Dip][dK]-NH2; disulfide 6-7)
3 | > 500 | – | CC(C)CC(=O)N[C@@H](CCC(=O)O)C(=O)N1CCC[C@H]1C(=O)N[C@@H](Cc1c[nH]cn1)C(=O)N[C@H](C(=O)N1CCC[C@H]1C(=O)N[C@H]1CSSC[C@@H](C(=O)N(C)[C@@H](CCCCNC(=O)CCCCCNC(=O)C[N+](C)(C)CCNC(=O)CCCCCCCCCCCCCCCCC(=O)O)C(=O)N[C@H](C(=O)N[C@H](CCCCN)C(N)=O)C(c2ccccc2)c2ccccc2)NC1=O)C(c1ccccc1)c1ccccc1 [compound 188] (Isovaleryl-EPH[Dip]PCC[NMeK]([Ahx-X1])[Dip][dK]-NH2; disulfide 6-7)
4 | 10 to 100 | – | CC(C)CC(=O)N[C@@H](CCC(=O)O)C(=O)N(C)[C@H](C(=O)N[C@@H](Cc1c[nH]cn1)C(=O)N[C@H](C(=O)N1CCC[C@H]1C(=O)N[C@H]1CSSC[C@@H](C(=O)N(C)[C@@H](CCCCNC(=O)C[N+](C)(C)CCNC(=O)CCCCCCCCCCCCCCCCC(=O)O)C(=O)N[C@H](C(=O)N[C@H](CCCCN)C(N)=O)C(c2ccccc2)c2ccccc2)NC1=O)C(c1ccccc1)c1ccccc1)[C@@H](C)O [compound 187] (Isovaleryl-E[NMeT]H[Dip]PCC[NMeK](X1)[Dip][dK]-NH2; disulfide 6-7)
5 | 10 to 100 | – | COC(=O)CC[C@H](NC(=O)CC(C)C)C(=O)N[C@H](C(=O)N[C@@H](Cc1c[nH]cn1)C(=O)N[C@H](C(=O)N1CCC[C@H]1C(=O)N[C@H]1CSSC[C@@H](C(=O)N[C@H](CCCCNC(=O)CCCCCNC(=O)C[N+](C)(C)CCNC(=O)CCCCCCCCCCCCCCCCC(=O)O)C(=O)N[C@H](C(=O)N[C@H](C(N)=O)C(C)(C)C)C(c2ccccc2)c2ccccc2)NC1=O)C(c1ccccc1)c1ccccc1)[C@@H](C)O [compound 212] (Isovaleryl-E(OMe)TH[Dip]PCC[dK]([Ahx-X1])[Dip][Tle]-NH2; disulfide 6-7)
6 | – | 10 to 100 | COC(=O)CC[C@H](NC(=O)CC(C)C)C(=O)N[C@H](C(=O)N[C@@H](Cc1c[nH]cn1)C(=O)N[C@H](C(=O)N1CCC[C@H]1C(=O)N[C@H]1CSSC[C@@H](C(=O)N(C)[C@@H](CCCCNC(=O)COCCOCCNC(=O)COCCOCCNC(=O)C[N+](C)(C)CCNC(=O)CCCCCCCCCCCCCCCCC(=O)O)C(=O)N[C@H](C(=O)N[C@H](CCCCN)C(N)=O)C(c2ccccc2)c2ccccc2)NC1=O)C(c1ccccc1)c1ccccc1)[C@@H](C)O [compound 230] (Isovaleryl-E(OMe)TH[Dip]PCC[NMeK]([AEEA-AEEA-X1])[Dip][dK]-NH2; disulfide 6-7)

The next lines start with the molecule.

Row | SMILES | IC50 [1] [nM] | IC50 (T47D internalization assay in presence of mouse serum albumin (MSA)) [nM]
7 | COC(=O)CC[C@H](NC(=O)CC(C)C)C(=O)N(C)[C@H](C(=O)N[C@@H](Cc1c[nH]cn1)C(=O)N[C@H](C(=O)N1CCC[C@H]1C(=O)N[C@H]1CSSC[C@@H](C(=O)N(C)[C@@H](CCCCNC(=O)CCCCCNC(=O)C[N+](C)(C)CCNC(=O)CCCCCCCCCCCCCCCCC(=O)O)C(=O)N[C@H](C(=O)N(C)[C@@H](CCCCN)C(N)=O)C(c2ccccc2)c2ccccc2)NC1=O)C(c1ccccc1)c1ccccc1)[C@@H](C)O [compound 153] (Isovaleryl-E(OMe)[NMeT]H[Dip]PCC[NMeK]([Ahx-X1])[Dip][NMeK]-NH2; disulfide 6-7) | 100 to 500 | –
8 | CCCCCCCCCCCCCCCC(=O)NCCCCCC(=O)NCCCC[C@@H](C(=O)N[C@H](C(=O)N[C@H](CCCCN)C(N)=O)C(c1ccccc1)c1ccccc1)N(C)C(=O)[C@@H]1CSSC[C@H](NC(=O)[C@@H]2CCCN2C(=O)[C@@H](NC(=O)[C@H](Cc2cnc[nH]2)NC(=O)[C@@H](NC(=O)[C@H](CCO)NC(=O)CC(C)C)[C@@H](C)O)C(c2ccccc2)c2ccccc2)C(=O)N1 [compound 168] (Isovaleryl-[hSer]TH[Dip]PCC[NMeK]([Ahx-Palmitoyl])[Dip][dK]-NH2; disulfide 6-7) | 1 to 10 | –
9 | COC(=O)CC[C@H](NC(=O)CC(C)C)C(=O)N1CCC[C@@]1(C)C(=O)N[C@@H](Cc1c[nH]cn1)C(=O)N[C@H](C(=O)N1CCC[C@H]1C(=O)N[C@H]1CSSC[C@@H](C(=O)N(C)[C@@H](CCCCNC(=O)CCCCCNC(=O)C[N+](C)(C)CCNC(=O)CCCCCCCCCCCCCCCCC(=O)O)C(=O)N[C@H](C(=O)N[C@H](CCCCN)C(N)=O)C(c2ccccc2)c2ccccc2)NC1=O)C(c1ccccc1)c1ccccc1 [compound 145] (Isovaleryl-E(OMe)[αMeP]H[Dip]PCC[NMeK]([Ahx-X1])[Dip][dK]-NH2; disulfide 6-7) | 10 to 100 | –
10 | COC(=O)CC[C@H](NC(=O)CC(C)C)C(=O)N(C)[C@H](C(=O)N[C@@H](Cc1c[nH]cn1)C(=O)N[C@H](C(=O)N1CCC[C@H]1C(=O)N[C@H]1CSSC[C@@H](C(=O)N(C)[C@@H](CCCCNC(=O)C[N+](C)(C)CCNC(=O)CCCCCCCCCCCCCCCCC(=O)O)C(=O)N[C@H](C(N)=O)C(c2ccccc2)c2ccccc2)NC1=O)C(c1ccccc1)c1ccccc1)[C@@H](C)O [compound 186] (Isovaleryl-E(OMe)[NMeT]H[Dip]PCC[NMeK](X1)[Dip]-NH2; disulfide 6-7) | 100 to 500 | –
11 | CC(C)CC(=O)N[C@@H](CCC(=O)O)C(=O)N1CC[C@@H](O)[C@H]1C(=O)N[C@@H](Cc1c[nH]cn1)C(=O)N[C@H](C(=O)N1CCC[C@H]1C(=O)N[C@H]1CSSC[C@@H](C(=O)N(C)[C@@H](CCCCNC(=O)CCCCCNC(=O)C[N+](C)(C)CCNC(=O)CCCCCCCCCCCCCCCCC(=O)O)C(=O)N[C@H](C(=O)N(C)[C@@H](CCCCN)C(N)=O)C(c2ccccc2)c2ccccc2)NC1=O)C(c1ccccc1)c1ccccc1 [compound 156] (Isovaleryl-E[Pro(3R-OH)]H[Dip]PCC[NMeK]([Ahx-X1])[Dip][NMeK]-NH2; disulfide 6-7) | 10 to 100 | –
12 | CCCCCCCCCCCCCCCC(=O)NCC[N+](C)(C)CC(=O)NCCCC[C@@H](C(=O)N[C@H](C(=O)N[C@H](CCCCN)C(N)=O)C(c1ccccc1)c1ccccc1)N(C)C(=O)[C@@H]1CSSC[C@H](NC(=O)[C@@H]2CCCN2C(=O)[C@@H](NC(=O)[C@H](Cc2cnc[nH]2)NC(=O)[C@@H]2[C@H](O)CCN2C(=O)[C@H](CCC(=O)O)NC(=O)CC(C)C)C(c2ccccc2)c2ccccc2)C(=O)N1 [compound 152] (Isovaleryl-E[Pro(3R-OH)]H[Dip]PCC[NMeK](X5)[Dip][dK]-NH2; disulfide 6-7) | 1 to 10 | –
13 | COC(=O)CCCCCCCCCCCCCCCCC(=O)NCC[N+](C)(C)CC(=O)NCCCCCC(=O)NCCCC[C@H]1C(=O)NC(C(c2ccccc2)c2ccccc2)C(=O)N[C@@H](C(N)=O)CCCCNC(=O)CC[C@H](NC(=O)CC(C)C)C(=O)N[C@@H]([C@@H](C)O)C(=O)N[C@@H](Cc2c[nH]cn2)C(=O)N[C@@H](C(c2ccccc2)c2ccccc2)C(=O)N2CCC[C@H]2C(=O)N[C@H]2CSSC[C@H](NC2=O)C(=O)N1C (some centres unmarked) [compound 160] (Isovaleryl-ETH[Dip]PCC[NMeK]([Ahx-X13])[ξDip][dK]-NH2; lactam 1-10; disulfide 6-7) | 10 to 100 | –
14 | CCCCCCCCCCCCCCCC(=O)NCCCCCC(=O)NCCCC[C@@H](C(=O)N[C@H](C(N)=O)C(c1ccccc1)c1ccccc1)N(C)C(=O)[C@@H]1CSSC[C@H](NC(=O)[C@@H]2CCCN2C(=O)[C@@H](NC(=O)[C@H](Cc2cnc[nH]2)NC(=O)[C@H]([C@@H](C)O)N(C)C(=O)[C@H](CCC(=O)O)NC(=O)CC(C)C)C(c2ccccc2)c2ccccc2)C(=O)N1 [compound 172] (Isovaleryl-E[NMeT]H[Dip]PCC[NMeK]([Ahx-Palmitoyl])[Dip]-NH2; disulfide 6-7) | 1 to 10 | –
